From ChEMBL document CHEMBL3621097, “A step forward in the sigma enigma: a role for chirality in the sigma1 receptorligand interaction?” (Medchemcomm, 2015)
pKi: −log10 of the molar value. Active and inactive are the calls of the source. The calls are words filed in the database; no cut-off is given here.

Experiments:
[1] = Displacement of [3H]-DTG from sigma-2 receptor in Sprague-Dawley rat liver membranes after 120 mins by scintillation counting analysis; assay type: cell membranes, Membrane
[2] = target: Sigma non-opioid intracellular receptor 1 (Cavia porcellus, UniProt Q60492); test: Displacement of [3H](+)-pentazocine from sigma-1 receptor in guinea pig brain cortex after 120 mins by scintillation counting analysis
Sigma non-opioid intracellular receptor 1, sequence (Q60492 whole entry): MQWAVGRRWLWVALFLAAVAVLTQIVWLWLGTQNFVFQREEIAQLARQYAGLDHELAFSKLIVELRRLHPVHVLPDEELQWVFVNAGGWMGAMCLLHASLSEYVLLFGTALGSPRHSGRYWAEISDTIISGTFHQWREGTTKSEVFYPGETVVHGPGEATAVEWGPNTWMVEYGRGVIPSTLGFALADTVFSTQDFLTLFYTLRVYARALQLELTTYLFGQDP

[3] = target: Sigma non-opioid intracellular receptor 1 (Rattus norvegicus) (UniProt Q9R0C9); test: Agonist activity at sigma 1 receptor in rat PC12 cells assessed as potentiation of NGF-induced neurite outgrowth at 2.5 to 5 uM after 5 days by phase contrast microscopic analysis relative to NGF-treated control; assay type: cell-based; conditions: PC-12
Sigma non-opioid intracellular receptor 1 (Rattus norvegicus), sequence (Q9R0C9 whole entry): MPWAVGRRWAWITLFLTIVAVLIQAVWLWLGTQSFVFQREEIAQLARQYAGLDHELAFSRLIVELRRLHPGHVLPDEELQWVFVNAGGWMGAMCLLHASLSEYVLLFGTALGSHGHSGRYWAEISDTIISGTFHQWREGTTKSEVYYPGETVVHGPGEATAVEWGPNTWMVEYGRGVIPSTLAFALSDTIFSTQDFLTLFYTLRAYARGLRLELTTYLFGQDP

[4] = target: Sigma non-opioid intracellular receptor 1 (Rattus norvegicus) (UniProt Q9R0C9); test: Agonist activity at sigma 1 receptor in rat PC12 cells assessed as potentiation of NGF-induced neurite outgrowth at 2.5 to 5 uM after 5 days by phase contrast microscopic analysis; assay type: cell-based; conditions: PC-12
[5] = target: Sigma non-opioid intracellular receptor 1 (Rattus norvegicus) (UniProt Q9R0C9); test: Agonist activity at sigma 1 receptor in rat PC12 cells assessed as potentiation of NGF-induced neurite outgrowth at 2.5 to 5 uM after 5 days by phase contrast microscopic analysis in presence of sigma 1 antagonist NE-100; assay type: cell-based; conditions: PC-12
[6] = Selectivity ratio of Ki for sigma-2 receptor in Sprague-Dawley rat liver membrane to Ki for sigma-1 receptor in guinea pig brain cortex; assay type: cell membranes

## CN(C)CC[C@@](C)(O)c1ccc2ccccc2c1
[1]
  pKi: 6.19
[2]
  pKi: 6.69

## C[C@@H]1N(C)CC[C@@]1(O)c1ccc2ccccc2c1
[1]
  pKi: 6.36
[2]
  pKi: 7.59

## C[C@@](O)(CCN1CCCCC1)c1ccc(-c2ccccc2)cc1
[1]
  pKi: 5.37
[3]
  Activity: inactive
[2]
  pKi: 7.41

## COc1ccc2cc(C(C)(O)CCN(C)C)ccc2c1 (racemic)
[1]
  pKi: 7.01
[2]
  pKi: 7.39

## COc1ccc2cc([C@]3(O)CCN(C)[C@H]3C)ccc2c1
[1]
  pKi: 5.72
[2]
  pKi: 5.92

## CN(C)CCC(C)(O)c1ccc2ccccc2c1 (racemic)
[1]
  pKi: 7.18
[2]
  pKi: 7.11

## COc1ccc2cc(C3(O)CCN(C)C3C)ccc2c1 (configuration not stated)
[1]
  pKi: 5.82
[2]
  pKi: 5.72

## CC(O)(CCN1CCCCC1)c1ccc(-c2ccccc2)cc1 (racemic)
[1]
  pKi: 7.46
[4]
  Activity: Active
[5]
  Activity: inactive
[2]
  pKi: 8.18

## C[C@](O)(CCN1CCCCC1)c1ccc(-c2ccccc2)cc1
[1]
  pKi: 5.74
[4]
  Activity: Active
[5]
  Activity: inactive
[6]
  Ratio Ki: 382
[2]
  pKi: 8.33

## CN(C)CC[C@](C)(O)c1ccc2ccccc2c1
[1]
  pKi: 7.12
[2]
  pKi: 7.20

## COc1ccc2cc([C@](C)(O)CCN(C)C)ccc2c1
[1]
  pKi: 6.88
[2]
  pKi: 7.29

## C[C@@H](CCN1CCCCC1)c1ccc(-c2ccccc2)cc1
[1]
  pKi: 7.01
[2]
  pKi: 8.72

## COc1ccc2cc([C@@](C)(O)CCN(C)C)ccc2c1
[1]
  pKi: 5.96
[2]
  pKi: 7.60

## COc1ccc2cc([C@@]3(O)CCN(C)[C@@H]3C)ccc2c1
[1]
  pKi: 5.92
[2]
  pKi: 5.82

## CC1N(C)CCC1(O)c1ccc2ccccc2c1 (racemic)
[1]
  pKi: 6.44
[2]
  pKi: 7.19

## CC(CCN1CCCCC1)c1ccc(-c2ccccc2)cc1 (racemic)
[1]
  pKi: 6.99
[2]
  pKi: 9.05

## C[C@H](CCN1CCCCC1)c1ccc(-c2ccccc2)cc1
[1]
  pKi: 7.35
[2]
  pKi: 8.74

## C[C@H]1N(C)CC[C@]1(O)c1ccc2ccccc2c1
[1]
  pKi: 7.03
[2]
  pKi: 7.07
